Reference: patent US11802111B2, “Cyclobutyl amide monoacylglycerol lipase modulators” (Janssen Pharmaceutica NV, priority 2020, dated 2023)

Molecular target: human MGL from HeLa cells (Homo sapiens (Human), UniProt Q99685)
Experiment: MGL in vitro activity assay ([glycerol-1,3-3H]-oleoyl glycerol hydrolysis, activated carbon filtration)
Format: biochemical
Conditions: 300 nM [Glycerol-1,3-3H]-oleoyl glycerol, one hour
Procedure, shortened: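 Activity measured as tritium in the flow-through after activated carbon filtration of a 1 h reaction containing 300 nM 3H-oleoyl glycerol, compound and HeLa-derived human MGL. Compounds screened at 10 μM; IC50 series start at an empirically chosen highest concentration.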

Chain of human MGL from HeLa cells (Q99685 whole entry): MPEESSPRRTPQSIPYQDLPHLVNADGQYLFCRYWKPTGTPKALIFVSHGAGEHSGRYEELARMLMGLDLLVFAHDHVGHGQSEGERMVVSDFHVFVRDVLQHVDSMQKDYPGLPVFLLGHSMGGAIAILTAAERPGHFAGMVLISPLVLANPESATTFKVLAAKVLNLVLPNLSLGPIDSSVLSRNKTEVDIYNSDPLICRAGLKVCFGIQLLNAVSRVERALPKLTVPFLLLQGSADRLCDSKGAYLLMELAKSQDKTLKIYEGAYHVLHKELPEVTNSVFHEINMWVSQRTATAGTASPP

Q: `Cc1ccc(C2CCC3(CC2)CN(C(=O)[C@H]2C[C@@](C)(O)C2)C3)cc1C` [Example 134, (7-(3,4-Dimethylphenyl)-2-azaspiro[3.5]nonan-2-yl)((1s,3s)-3-hydroxy-3-methylcyclobutyl)methanone] was tested. Which IC50 did it give?
A: Its IC50 is 12 nM.

Q: How did the IC50 turn out when `CC(C)(C)c1cccc(C2CCC3(CC2)CN(C(=O)[C@H]2C[C@@](C)(O)C2)C3)c1` [Example 135, (7-(3-(tert-Butyl)phenyl)-2-azaspiro[3.5]nonan-2-yl)((1s,3s)-3-hydroxy-3-methylcyclobutyl)methanone] was run?
A: Its IC50 is 2.1 nM.

Q: `Cc1ccc(C2CCC3(CC2)CN(C(=O)[C@H]2C[C@@](C)(O)C2)C3)cc1` [Example 136, ((1s,3s)-3-Hydroxy-3-methylcyclobutyl)(7-(p-tolyl)-2-azaspiro[3.5]nonan-2-yl)methanone] was tested. Which IC50 did it give?
A: The IC50 was 35 nM.

Q: Which IC50 does the source give for `Cc1cccc(C2CCC3(CC2)CN(C(=O)[C@H]2C[C@@](C)(O)C2)C3)c1` [Example 137, ((1s,3s)-3-Hydroxy-3-methylcyclobutyl)(7-(m-tolyl)-2-azaspiro[3.5]nonan-2-yl)methanone] here?
A: Its IC50 is 38 nM.

Q: `Cc1ccccc1C1CCC2(CC1)CN(C(=O)[C@H]1C[C@@](C)(O)C1)C2` [Example 138, ((1s,3s)-3-Hydroxy-3-methylcyclobutyl)(7-(o-tolyl)-2-azaspiro[3.5]nonan-2-yl)methanone] was tested. Which IC50 did it give?
A: The IC50 was 47 nM.

Q: `CC(C)(C)c1cc(C2CCC3(CC2)CN(C(=O)[C@H]2C[C@@](C)(O)C2)C3)ccn1` [Example 139, (7-(2-(tert-Butyl)pyridin-4-yl)-2-azaspiro[3.5]nonan-2-yl)((1s,3s)-3-hydroxy-3-methylcyclobutyl)methanone] was tested. Which IC50 did it give?
A: Its IC50 is 167 nM.

Q: How did the IC50 turn out when `COc1cc(C2CCC3(CC2)CN(C(=O)[C@H]2C[C@@](C)(O)C2)C3)ccc1C1CC1` [Example 140, (7-(4-Cyclopropyl-3-methoxyphenyl)-2-azaspiro[3.5]nonan-2-yl)((1s,3s)-3-hydroxy-3-methylcyclobutyl)methanone] was run?
A: Its IC50 is 33 nM.

Q: How did the IC50 turn out when `COc1cc(C2CC2)cc(C2CCC3(CC2)CN(C(=O)[C@H]2C[C@@](C)(O)C2)C3)c1` [Example 141, (7-(3-Cyclopropyl-5-methoxyphenyl)-2-azaspiro[3.5]nonan-2-yl)((1s,3s)-3-hydroxy-3-methylcyclobutyl)methanone] was run?
A: The IC50 was 20 nM.

Q: How did the IC50 turn out when `COc1ccc(C2CCC3(CC2)CN(C(=O)[C@H]2C[C@@](C)(O)C2)C3)cc1C1CC1` [Example 142, (7-(3-Cyclopropyl-4-methoxyphenyl)-2-azaspiro[3.5]nonan-2-yl)((1s,3s)-3-hydroxy-3-methylcyclobutyl)methanone] was run?
A: Its IC50 is 121 nM.

Q: How did the IC50 turn out when `Cc1cc(C2CC2)cc(C2CCC3(CC2)CN(C(=O)[C@H]2C[C@@](C)(O)C2)C3)c1` [Example 143, (7-(3-Cyclopropyl-5-methylphenyl)-2-azaspiro[3.5]nonan-2-yl)((1s,3s)-3-hydroxy-3-methylcyclobutyl)methanone] was run?
A: Its IC50 is 4.5 nM.

Q: `CCc1cccc(C2CCC3(CC2)CN(C(=O)[C@H]2C[C@@](C)(O)C2)C3)c1OC` [Example 144, (7-(3-Ethyl-2-methoxyphenyl)-2-azaspiro[3.5]nonan-2-yl)((1s,3s)-3-hydroxy-3-methylcyclobutyl)methanone] was tested. Which IC50 did it give?
A: The IC50 was 16 nM.

Q: `CCc1cc(OC)cc(C2CCC3(CC2)CN(C(=O)[C@H]2C[C@@](C)(O)C2)C3)c1` [Example 145, (7-(3-Ethyl-5-methoxyphenyl)-2-azaspiro[3.5]nonan-2-yl)((1s,3s)-3-hydroxy-3-methylcyclobutyl)methanone] was tested. Which IC50 did it give?
A: Its IC50 is 31 nM.

Q: How did the IC50 turn out when `CCc1cc(C2CCC3(CC2)CN(C(=O)[C@H]2C[C@@](C)(O)C2)C3)cc(C(F)(F)F)c1` [Example 146, (7-(3-Ethyl-5-(trifluoromethyl)phenyl)-2-azaspiro[3.5]nonan-2-yl)((1s,3s)-3-hydroxy-3-methylcyclobutyl)methanone] was run?
A: The IC50 was 4.6 nM.

Q: `Cc1cc(C)cc(C2CCC3(CC2)CN(C(=O)[C@H]2C[C@@](C)(O)C2)C3)c1` [Example 147, (7-(3,5-Dimethylphenyl)-2-azaspiro[3.5]nonan-2-yl)((1s,3s)-3-hydroxy-3-methylcyclobutyl)methanone] was tested. Which IC50 did it give?
A: Its IC50 is 6.4 nM.

Q: How did the IC50 turn out when `CCc1cc(OC(F)(F)F)cc(C2CCC3(CC2)CN(C(=O)[C@H]2C[C@@](C)(O)C2)C3)c1` [Example 148, (7-(3-Ethyl-5-(trifluoromethoxy)phenyl)-2-azaspiro[3.5]nonan-2-yl)((1s,3s)-3-hydroxy-3-methylcyclobutyl)methanone] was run?
A: Its IC50 is 9.4 nM.

Q: For `C[C@]1(O)C[C@@H](C(=O)N2CC3(CCC(c4cc(Cl)cc(OC(F)(F)F)c4)CC3)C2)C1` [Example 149, (7-(3-Chloro-5-(trifluoromethoxy)phenyl)-2-azaspiro[3.5]nonan-2-yl)((1s,3s)-3-hydroxy-3-methylcyclobutyl)methanone], which IC50 is on record?
A: Its IC50 is 1.7 nM.

Q: Which IC50 does the source give for `CCOc1ccc(C2CCC3(CC2)CN(C(=O)[C@H]2C[C@@](C)(O)C2)C3)cc1C(F)(F)F` [Example 150, (7-(4-Ethoxy-3-(trifluoromethyl)phenyl)-2-azaspiro[3.5]nonan-2-yl)((1s,3s)-3-hydroxy-3-methylcyclobutyl)methanone] here?
A: The IC50 was 17 nM.

Q: For `CC(C)c1cccc(C2(O)CCC3(CC2)CN(C(=O)[C@H]2C[C@@](C)(O)C2)C3)c1` [Example 151, ((1s,3s)-3-Hydroxy-3-methylcyclobutyl)(7-hydroxy-7-(3-isopropylphenyl)-2-azaspiro[3.5]nonan-2-yl)methanone], which IC50 is on record?
A: Its IC50 is 4.6 nM.

Q: Which IC50 does the source give for `CC(C)(C)c1cccc(C2CC3(CCN(C(=O)[C@H]4C[C@@](C)(O)C4)CC3)C2)c1` [Example 153, (2-(3-(tert-Butyl)phenyl)-7-azaspiro[3.5]nonan-7-yl)((1s,3s)-3-hydroxy-3-methylcyclobutyl)methanone] here?
A: The IC50 was 22 nM.

Q: How did the IC50 turn out when `Cc1c(CC2CC3(C2)CN(C(=O)[C@H]2C[C@@](C)(O)C2)C3)cccc1C1CC1` [Example 154, (6-(3-Cyclopropyl-2-methylbenzyl)-2-azaspiro[3.3]heptan-2-yl)((1s,3s)-3-hydroxy-3-methylcyclobutyl)methanone] was run?
A: The IC50 was 1.7 nM.

Q: For `Cc1c(CC2CC3(C2)CN(C(=O)[C@H]2C[C@@](C)(O)C2)C3)cccc1C(F)(F)F` [Example 155, ((1s,3s)-3-Hydroxy-3-methylcyclobutyl)(6-(2-methyl-3-(trifluoromethyl)benzyl)-2-azaspiro[3.3]heptan-2-yl)methanone], which IC50 is on record?
A: The IC50 was 3 nM.

Q: For `Cc1cccc(CC2CC3(C2)CN(C(=O)[C@H]2C[C@@](C)(O)C2)C3)c1C` [Example 156, (6-(2,3-Dimethylbenzyl)-2-azaspiro[3.3]heptan-2-yl)((1s,3s)-3-hydroxy-3-methylcyclobutyl)methanone], which IC50 is on record?
A: The IC50 was 11 nM.

Q: Which IC50 does the source give for `C[C@]1(O)C[C@@H](C(=O)N2CC3(CC(Cc4cccc(OC(F)F)c4)C3)C2)C1` [Example 157, (6-(3-(Difluoromethoxy)benzyl)-2-azaspiro[3.3]heptan-2-yl)((1s,3s)-3-hydroxy-3-methylcyclobutyl)methanone] here?
A: Its IC50 is 29 nM.

Q: With `CCc1ccccc1CC1CC2(C1)CN(C(=O)[C@H]1C[C@@](C)(O)C1)C2` [Example 158, (6-(2-Ethylbenzyl)-2-azaspiro[3.3]heptan-2-yl)((1s,3s)-3-hydroxy-3-methylcyclobutyl)methanone] as the compound, how does the IC50 read?
A: The IC50 was 9.2 nM.

Q: With `Cc1cccc(CC2CCC3(CC2)CN(C(=O)[C@H]2C[C@@](C)(O)C2)C3)c1` [Example 159, ((1s,3s)-3-Hydroxy-3-methylcyclobutyl)(7-(3-methylbenzyl)-2-azaspiro[3.5]nonan-2-yl)methanone] as the compound, how does the IC50 read?
A: The IC50 was 31 nM.

Q: With `C[C@]1(O)C[C@@H](C(=O)N2CC3(CCC(Cc4cccc(OC(F)F)c4)CC3)C2)C1` [Example 160, (7-(3-(Difluoromethoxy)benzyl)-2-azaspiro[3.5]nonan-2-yl)((1s,3s)-3-hydroxy-3-methylcyclobutyl)methanone] as the compound, how does the IC50 read?
A: The IC50 was 38 nM.

Q: For `C[C@]1(O)C[C@@H](C(=O)N2CC3(CCC(Cc4ccc(OC(F)F)cc4)CC3)C2)C1` [Example 161, (7-(4-(Difluoromethoxy)benzyl)-2-azaspiro[3.5]nonan-2-yl)((1s,3s)-3-hydroxy-3-methylcyclobutyl)methanone], which IC50 is on record?
A: The IC50 was 19 nM.

Q: `C[C@]1(O)C[C@@H](C(=O)N2CC3(CCC(Cc4ccc(C(F)F)cc4)CC3)C2)C1` [Example 162, (7-(4-(Difluoromethyl)benzyl)-2-azaspiro[3.5]nonan-2-yl)((1s,3s)-3-hydroxy-3-methylcyclobutyl)methanone] was tested. Which IC50 did it give?
A: Its IC50 is 29 nM.

Q: For `C[C@]1(O)C[C@@H](C(=O)N2CC3(CCC(Cc4cccc(C(F)F)c4)CC3)C2)C1` [Example 163, (7-(3-(Difluoromethyl)benzyl)-2-azaspiro[3.5]nonan-2-yl)((1s,3s)-3-hydroxy-3-methylcyclobutyl)methanone], which IC50 is on record?
A: The IC50 was 61 nM.

Q: With `C[C@]1(O)C[C@@H](C(=O)N2CC3(CC(Cc4ccccc4)C3)C2)C1` [Example 164, (6-Benzyl-2-azaspiro[3.3]heptan-2-yl)((1s,3s)-3-hydroxy-3-methylcyclobutyl)methanone] as the compound, how does the IC50 read?
A: Its IC50 is 52 nM.

Q: With `Cc1cccc(CC2CC3(C2)CN(C(=O)[C@H]2C[C@@](C)(O)C2)C3)c1` [Example 165, ((1s,3s)-3-Hydroxy-3-methylcyclobutyl)(6-(3-methylbenzyl)-2-azaspiro[3.3]heptan-2-yl)methanone] as the compound, how does the IC50 read?
A: Its IC50 is 21 nM.

Q: `Cc1ccc(CC2CC3(C2)CN(C(=O)[C@H]2C[C@@](C)(O)C2)C3)cc1` [Example 166, ((1s,3s)-3-Hydroxy-3-methylcyclobutyl)(6-(4-methylbenzyl)-2-azaspiro[3.3]heptan-2-yl)methanone] was tested. Which IC50 did it give?
A: The IC50 was 14 nM.

Q: Which IC50 does the source give for `C[C@]1(O)C[C@@H](C(=O)N2CC3(CC(Cc4ccccn4)C3)C2)C1` [Example 167, ((1s,3s)-3-Hydroxy-3-methylcyclobutyl)(6-(pyridin-2-ylmethyl)-2-azaspiro[3.3]heptan-2-yl)methanone] here?
A: Its IC50 is 1390 nM.

Q: How did the IC50 turn out when `C[C@]1(O)C[C@@H](C(=O)N2CC3(CC(Cc4cccnc4)C3)C2)C1` [Example 168, ((1s,3s)-3-Hydroxy-3-methylcyclobutyl)(6-(pyridin-3-ylmethyl)-2-azaspiro[3.3]heptan-2-yl)methanone] was run?
A: Its IC50 is 1370 nM.

Q: With `C[C@]1(O)C[C@@H](C(=O)N2CCC3(CC2)CC(Cc2ccccc2)C3)C1` [Example 172, (2-Benzyl-7-azaspiro[3.5]nonan-7-yl)((1s,3s)-3-hydroxy-3-methylcyclobutyl)methanone] as the compound, how does the IC50 read?
A: The IC50 was 74 nM.
